# Columns and labels:
# [1] = Cytotoxicity against human HuH7 cells assessed as inhibition of cell proliferation by sulforhodamine B assay; assay type: functional, cell-based; conditions: Huh-7
# [2] = Cytotoxicity against human MV cells assessed as inhibition of cell proliferation by sulforhodamine B assay; assay type: functional, cell-based
Compound,IC50 [1] [µM],IC50 [2] [µM]
C#CC(=O)N1C(c2ccc(F)cc2)SC[C@@H]1C(=O)OCC (mixture of isomers),0.7,0.4
C#CC(=O)N1C(c2ccccc2)SC[C@@H]1C(=O)OCC (some centres not stated),5.3,0.4
C#CC(=O)N1C(c2ccc(OC)cc2)SC[C@@H]1C(=O)OCC (mixture of isomers),1.4,0.7
C#CC(=O)N1C(CCCC)SC[C@@H]1C(=O)OCC (mixture of isomers),0.5,0.4
C#CC(=O)N1C(c2ccc(C#N)cc2)SC[C@@H]1C(=O)OCC (mixture of isomers),2.6,2.4
C#CC(=O)N1C(c2ccccc2F)SC[C@@H]1C(=O)OCC (mixture of isomers),1.7,1.7
CC[C@@]1(O)C(=O)OCc2c1cc1n(c2=O)Cc2cc3ccccc3nc2-1 [CAMPTOTHECIN],0.1,< 1
C#CC(=O)N1C(CCCCC)SC[C@@H]1C(=O)OCC (mixture of isomers),1.8,2
C#CC(=O)N1C(C(C)(C)C)SC[C@@H]1C(=O)OCC (mixture of isomers),0.8,0.9
C#CC(=O)N1C(c2cccc(F)c2)SC[C@@H]1C(=O)OCC (mixture of isomers),1.4,1.7
O=c1[nH]cc(F)c(=O)[nH]1 [FLUOROURACIL],–,10
C#CC(=O)N1C(C(CC)CCCC)SC[C@@H]1C(=O)OCC (mixture of isomers),1.7,1.6
C#CC(=O)N1C(CC(C)CC(C)(C)C)SC[C@@H]1C(=O)OCC (mixture of isomers),1.6,1.1
C#CC(=O)N1C(C(C)CCC)SC[C@@H]1C(=O)OCC (mixture of isomers),0.6,0.5

# From ChEMBL document CHEMBL3616386, “3-Propionyl-thiazolidine-4-carboxylic acid ethyl esters: a family of antiproliferative thiazolidines” (Medchemcomm, 2015)
